Test results: patent US20060134102A1, “Lymphotoxin beta receptor agents in combination with chemotherapeutic agents” (Biogen Idec MA Inc., priority 2002, published 2006)
“And” between values parts separate entries of the source, which are not always exact repeats. Equal values may be shown once.

Tested on: WiDr human colorectal adenocarcinoma
Experiment: WiDr xenograft model: growth of established WiDr human colorectal tumors in athymic nude mice (tumor volume/weight, % T/C, Fa, Combination Index)
Settings: for Fractional Inhibition of Tumor Volume (Fa), Ave. / Tumor Volume, Ave.: group average; for Volume Decrease: vs control
[1] = Gem 12.5 mg/kg, day 28, one line per animal, listed as Gem
[2] = Gem 25 mg/kg, day 28, one line per animal, listed as Gem
[3] = Gem 50 mg/kg, day 28, one line per animal, listed as Gem
[4] = Day 34, individual animals, hCBE 50
[5] = Day 34, individual animals, hCBE 500
[6] = hCBE 50 μg, day 28, one line per animal
[7] = hCBE 100 μg, day 28, one line per animal
[8] = huCBE11 50 μg, day 21, listed as hCBE

Procedure: Therapeutic agents, i.e. LTβR agonist and chemotherapeutic agents, were administered to athymic nude mice who had been implanted with WiDr tumor cells.
WiDr cells were obtained from the American Type Culture Collection (Manassas, Va.). Cells were grown in vitro in 90% Eagle's Minimum Essential Medium with 2 mM L-glutamine and Earle's Balanced Salt Solution (BSS) adjusted to contain 1.5 g/L sodium bicarbonate, 0.1 mM non-essential amino acids, and 1 mM sodium pyruvate plus 10% fetal bovine serum (FBS) without antibiotics (5% CO2). Bacterial cultures were performed on aliquots of the tumor homogenate preparation that was implanted into the mice to ensure that all cultures were negative for bacterial contamination at both 24 and 48 hours post implant.
When the tumors measured approximately 5 mm in length by 5 mm in width, mice were randomized to treatment and control groups. Body weight measurements were recorded twice-weekly beginning on Day 0.
Tumor measurements were determined using Vernier calipers. Tumor size measurements were recorded regularly according to the study, until the termination of the study. The formula to calculate volume for a prolate ellipsoid was used to estimate tumor volume (mm^3) from 2-dimensional tumor measurements: tumor volume (mm^3)=(length×width^2 [L×W^2])÷2. Assuming unit density, volume was converted to weight (i.e., 1 mm^3=1 mg). Tumor growth inhibition was assessed as % T/C, where T is the mean tumor weight of the treatment group and C is the mean tumor weight of the control group. […] Animals were sacrificed accordingly.
Statistical analysis of the tumor weight measurements was performed according to standard statistical methods. Mean, standard deviation (SD), and standard error of the mean (SEM) were determined for body weight and tumor weight for all dose groups at all assessments.
Antitumor efficacy was determined by comparing each treatment group's tumor volume with the control group's tumor volume. Mean tumor volume decrease was calculated as the difference between the control group and the treatment group mean tumor volume. The fractional inhibition of tumor volume, i.e., the fraction affected (Fa), was calculated by dividing the treatment group mean tumor volume decrease by the control group mean tumor volume. […] Further statistical analysis was performed accordingly.

Nc1ccn([C@@H]2O[C@H](CO)[C@@H](O)C2(F)F)c(=O)n1 [Gemcitabine, gemcitabine, reference compound]
Fractional Inhibition of Tumor Volume (Fa), Ave. (Gem 12.5 mg/kg, day 28): 0.403 | Tumor Volume, Ave. (Gem 12.5 mg/kg, day 28): 479.5 | Individual Fractional Inhibition of Tumor Volume (Fa) [1]: 0.571 and 0.001 and 0.524 and 0.490 and 0.427 and 0.479 and 0.421 and 0.632 and −0.058 and 0.543 | Individual Tumor Volumes [1]: 344.8 and 802.2 and 382.6 and 409.5 and 459.9 and 418.6 and 465.3 and 295.5 and 849.7 and 367.1 | Fractional Inhibition of Tumor Volume (Fa), Ave. (Gem 25 mg/kg, day 28): 0.603 | Tumor Volume, Ave. (Gem 25 mg/kg, day 28): 319.0 | Individual Fractional Inhibition of Tumor Volume (Fa) [2]: 0.678 and 0.561 and 0.657 and 0.440 and 0.505 and 0.574 and 0.712 and 0.703 and 0.559 and 0.641 | Individual Tumor Volumes [2]: 258.5 and 352.8 and 275.7 and 450.0 and 397.8 and 342.6 and 230.9 and 238.8 and 354.3 and 288.2 | Fractional Inhibition of Tumor Volume (Fa), Ave. (Gem 50 mg/kg, day 28): 0.594 | Tumor Volume, Ave. (Gem 50 mg/kg, day 28): 326.0 | Individual Fractional Inhibition of Tumor Volume (Fa) [3]: 0.602 and 0.812 and 0.747 and 0.502 and 0.445 and 0.538 and 0.447 and 0.774 and 0.659 and 0.417 | Individual Tumor Volumes [3]: 319.6 and 151.2 and 203.1 and 400.1 and 446.1 and 370.9 and 444.1 and 181.8 and 274.1 and 468.6 | Fraction Affected (Gemcitabine 12.5 mg/kg given separately, day 28): 0.403 | Tumor Volume (Gemcitabine 12.5 mg/kg, day 28): 479.5 | Volume Decrease (Gemcitabine 12.5 mg/kg, day 28): 323.7 | Fraction Affected (Gemcitabine 25 mg/kg given separately, day 28): 0.603 | Tumor Volume (Gemcitabine 25 mg/kg, day 28): 318.9 | Volume Decrease (Gemcitabine 25 mg/kg, day 28): 484.3 | Tumor Volume (Gemcitabine 50 mg/kg, day 28): 326.0 | Volume Decrease (Gemcitabine 50 mg/kg, day 28): 477.2 | Median Effect Dose (Gemcitabine combined with huCBE11 (0.568:1), day 28): 4.2 mg/kg | Median Effect Dose (Gemcitabine given separately, day 28): 16.7 mg/kg | Inhibition of tumor growth vs vehicle control (gemcitabine 12.5 mg/kg, Day 41, separate study): No significant inhibition | % T/C (gemcitabine 25 mg/kg, Days 21 and 28): below 42% | Activity by NCI criteria (% T/C of 42 or less) (gemcitabine 50 mg/kg to […], Day 41): inactive | % T/C (gemcitabine 50 mg/kg, Days 17 to 28): below 42%

huCBE11: humanized anti-LT-β-R agonist antibody (LTβ receptor-activating mAb), described in WO 02/30986
Fa (Fraction Affected) (Day 34, huCBE11 5 ug): 0.256 | Tumor Volume (Day 34, huCBE11 5 ug): 1024.0 | Volume Decrease (Day 34, huCBE11 5 ug): 352.4 | Fa (Fraction Affected) (Day 34, huCBE11 50 ug): 0.361 | Tumor Volume (Day 34, huCBE11 50 ug): 880.1 | Volume Decrease (Day 34, huCBE11 50 ug): 496.3 | Fa (Fraction Affected) (Day 34, huCBE11 500 ug): 0.466 | Tumor Volume (Day 34, huCBE11 500 ug): 735.6 | Volume Decrease (Day 34, huCBE11 500 ug): 640.8 | Median Effect Dose (Day 34, huCBE11 Given Separately): 932.9 µg | Median Effect Dose (Day 34, huCBE11 dose, Combined (0.333:1) with Taxol): 19.8 µg | Individual Fractional Inhibition of Tumor Volume [4]: 0.039 and 0.536 and 0.420 and 0.452 and 0.391 and 0.290 and 0.423 and 0.674 and −0.234 and 0.614 | Individual Tumor Volumes [4]: 1322.2 and 638.5 and 798.8 and 754.3 and 838.2 and 976.8 and 794.0 and 448.6 and 1698.4 and 531.6 | Individual Fractional Inhibition of Tumor Volume [5]: 0.174 and 0.360 and 0.502 and 0.529 and 0.688 and 0.717 and 0.395 and 0.607 and 0.230 and 0.454 | Individual Tumor Volumes [5]: 1136.7 and 881.2 and 685.7 and 648.1 and 430.1 and 389.8 and 832.1 and 541.3 and 1059.8 and 751.2 | Tumor weight vs vehicle control (all huCBE11 groups (500, 100, 50 μg), day 42): statistically significantly lower | Fractional Inhibition of Tumor Volume (Fa), Ave. (hCBE 50 μg, day 28): 0.442 | Tumor Volume, Ave. (hCBE 50 μg, day 28): 448.0 | Individual Fractional Inhibition of Tumor Volume (Fa) [6]: 0.467 and 0.547 and 0.564 and 0.463 and 0.456 and 0.350 and −0.060 and 0.245 and 0.827 and 0.562 | Individual Tumor Volumes [6]: 428.2 and 363.5 and 350.4 and 431.3 and 437.1 and 521.8 and 851.1 and 606.1 and 138.7 and 352.2 | Fractional Inhibition of Tumor Volume (Fa), Ave. (hCBE 100 μg, day 28): 0.519 | Tumor Volume, Ave. (hCBE 100 μg, day 28): 386.1 | Individual Fractional Inhibition of Tumor Volume (Fa) [7]: 0.754 and −0.210 and 0.441 and 0.590 and 0.596 and 0.449 and 0.682 and 0.556 and 0.723 and 0.614 | Individual Tumor Volumes [7]: 197.9 and 972.2 and 449.1 and 329.2 and 324.7 and 442.5 and 255.6 and 356.8 and 222.4 and 310.4 | Fa (Fraction Affected), group mean (huCBE11 5 μg, day 21): 0.265 | Tumor Volume, group mean (huCBE11 5 μg, day 21): 319.0 | Volume Decrease vs control, group mean (huCBE11 5 μg, day 21): 115.0 | Fa (huCBE11 5 μg, day 28): 0.143 | Tumor Volume (huCBE11 5 μg, day 28): 688.4 | Volume Decrease (huCBE11 5 μg, day 28): 114.8 | Inhibition of tumor growth (huCBE11 5 μg, gemcitabine parallel study): did not significantly inhibit tumor growth | Fraction Affected (huCBE11 50 μg given separately, day 28): 0.442 | % T/C (huCBE11 50 μg, Day 41): 43.5% | Fa (Fraction Affected), group mean (huCBE11 50 μg, day 21): 0.383 | Tumor Volume, group mean (huCBE11 50 μg, day 21): 267.8 | Volume Decrease vs control, group mean (huCBE11 50 μg, day 21): 166.2 | Fa, individual animals [8]: 0.607 and 0.437 and 0.466 and 0.590 and 0.298 and 0.605 and 0.179 and −0.015 and 0.415 and 0.247 | Tumor volume, individual animals [8]: 170.5 and 244.3 and 231.8 and 178.1 and 304.5 and 171.3 and 356.5 and 440.3 and 254.0 and 326.6 | Tumor Volume (huCBE11 50 μg, day 28): 448.0 | Volume Decrease (huCBE11 50 μg, day 28): 355.2 | Fa (fractional inhibition of tumor volume), group mean (huCBE11 50 μg, day 35): 0.437 | Fa, individual animals (huCBE11 50 μg, day 35): 0.723 and 0.666 and 0.660 and 0.636 and 0.318 and −0.502 and 0.321 and 0.473 and 0.743 and 0.329 | Tumor Volume, group mean (huCBE11 50 μg, day 35): 633.2 | Tumor volume, individual animals (huCBE11 50 μg, day 35): 311.9 and 375.4 and 381.9 and 409.6 and 766.4 and 1688.6 and 762.8 and 592.2 and 289.2 and 754.4 | Volume Decrease vs control, group mean (huCBE11 50 μg, day 35): 490.8 | Fa (fractional inhibition of tumor volume), group mean (huCBE11 50 μg, day 44): 0.387 | Fa, individual animals (huCBE11 50 μg, day 44): 0.656 and 0.434 and 0.559 and 0.498 and 0.143 and 0.591 and −0.316 and 0.381 and 0.406 and 0.516 | Tumor Volume, group mean (huCBE11 50 μg, day 44): 869.7 | Tumor volume, individual animals (huCBE11 50 μg, day 44): 487.5 and 802.7 and 624.9 and 712.0 and 1216.2 and 580.7 and 1866.3 and 878.7 and 842.6 and 686.0 | Volume Decrease vs control, group mean (huCBE11 50 μg, day 44): 548.9 | Fraction Affected (huCBE11 100 μg given separately, day 28): 0.519 | % T/C (huCBE11 100 μg, Day 41): 40.0% | Tumor Volume (huCBE11 100 μg, day 28): 386.1 | Volume Decrease (huCBE11 100 μg, day 28): 417.1 | Fa (fractional inhibition of tumor volume), group mean (huCBE11 100 μg, day 35): 0.645 | Fa, individual animals (huCBE11 100 μg, day 35): 0.762 and 0.814 and 0.781 and 0.739 and 0.750 and 0.344 and 0.593 and 0.696 and 0.119 and 0.848 | Tumor Volume, group mean (huCBE11 100 μg, day 35): 399.5 | Tumor volume, individual animals (huCBE11 100 μg, day 35): 267.9 and 208.9 and 245.8 and 293.4 and 281.4 and 737.5 and 457.4 and 341.5 and 990.1 and 171.4 | Volume Decrease vs control, group mean (huCBE11 100 μg, day 35): 724.5 | Activity by NCI criteria (% T/C of 42 or less) (huCBE11 100 μg, gemcitabine parallel study): active | % T/C (huCBE11 500 μg and 50 μg groups, days 35 or 38 to 42): < 42% | % T/C (huCBE11 500 μg and 100 μg groups, days 32 to 42): < 42% | Activity by NCI criteria (huCBE11 500 μg, 100 μg, 50 μg, adriamycin parallel study): active | % T/C (huCBE11 500 μg, Days 31 to 45): below 42% | Fa (Fraction Affected), group mean (huCBE11 500 μg, day 21): 0.418 | Tumor Volume, group mean (huCBE11 500 μg, day 21): 252.5 | Volume Decrease vs control, group mean (huCBE11 500 μg, day 21): 181.5 | Fa (fractional inhibition of tumor volume), group mean (huCBE11 500 μg, day 35): 0.648 | Fa, individual animals (huCBE11 500 μg, day 35): 1.000 and 0.750 and 0.305 and 0.758 and 0.522 and 0.756 and 0.672 and 0.670 and 0.307 and 0.736 | Tumor Volume, group mean (huCBE11 500 μg, day 35): 396.0 | Tumor volume, individual animals (huCBE11 500 μg, day 35): 0.1 and 280.9 and 781.0 and 272.3 and 537.5 and 273.7 and 368.7 and 370.6 and 778.7 and 296.8 | Volume Decrease vs control, group mean (huCBE11 500 μg, day 35): 728.0 | Fa (fractional inhibition of tumor volume), group mean (huCBE11 500 μg, day 44): 0.567 | Fa, individual animals (huCBE11 500 μg, day 44): 0.930 and 0.334 and 0.624 and 0.765 and 0.669 and 0.538 and 0.285 and 0.489 and 0.488 and 0.545 | Tumor Volume, group mean (huCBE11 500 μg, day 44): 614.7 | Tumor volume, individual animals (huCBE11 500 μg, day 44): 99.1 and 944.8 and 534.1 and 333.2 and 469.4 and 655.8 and 1014.0 and 725.3 and 726.2 and 645.6 | Volume Decrease vs control, group mean (huCBE11 500 μg, day 44): 803.9 | Activity by NCI criteria (% T/C of 42 or less) (huCBE11, Camptosar parallel study): active | Median Effect Dose (huCBE11 combined with Camptosar (0.555:1), day 21): 10.2 µg | Median Effect Dose (huCBE11 combined with Gemcitabine (0.568:1), day 28): 7.3 µg | Median Effect Dose (huCBE11 given separately, day 21): 2933 µg | Median Effect Dose (huCBE11 given separately, day 28): 81.1 µg
